This assay concerns the target NR1/NR2A (Homo sapiens (Human), UniProt Q05586+Q12879). The experiment in a line: FDSS Ca2+ influx inhibition assay in HEK293 cells expressing NR1/NR2A. It counts as cell-based. The conditions noted are these: 3 μM glutamate, 3 μM glycine, 1 mM Ca2+. As for the experimental part:
Cell Culture and plating: HEK293 cells expressing NR1/NR2A (Chantest, Cleveland, Ohio) were grown to 70-80% confluency as an adherent monolayer in standard tissue culture flasks at 37° C., 5% CO2 per supplier's instructions.
After induction, cell culture medium was removed and cells were rinsed once with Ca^2+ and Mg^2+-free Dulbecco's phosphate buffered saline. Cells were then removed from the flask using TrypLE™ Express (Life Technologies) according to the manufacturer's instructions and collected to 50 ml centrifuge tubes. Following two washes in Ca^2+/Mg^2+-free HBSS with 20 mM HEPES (HHnoCa), cells were counted and viability assessed using trypan blue. To load cells with Ca^2+-sensitive dye, they were resuspended in fluo-8 plus Component B (AAT Bioquest Products) diluted in HHnoCa and incubated 15 minutes at 37° C., followed by 30 minutes at room temp (in dark). Cells were then washed and resuspended in HHnoCa to remove extracellular dye and plated in 384-well plates (Falcon, uncoated) at 20,000-30,000 cells/well in a final volume of 25 μL/well.
FDSS Assay: To each well of the plate, 10 μL test compound, control (MK801) or HHnoCa buffer was added to a final concentration of 10 μM with a final concentration of DMSO of 0.1%. Following 10 minutes pre-incubation in the dark, plates are loaded onto the Hamamatsu FDSS 6000. After collecting baseline fluorescence images, 3 μM glutamate, 3 μM glycine, and 1 mM Ca^2+ in HHnoCa buffer is added to each well, and Ca^2+ is recorded for 3 minutes. Data were processed by computing ratio of fluorescence at the end of data collection to baseline fluorescence to assess degree of Ca^2+ influx inhibition relative to that observed in MK801.

Where [1] appears, read: inhibition relative to MK801, read-out: NR2A IC50.

SMILES strings stand for the structures. Where two headings read alike, the source gives them in different places.

Experimental findings from patent publication US9963434B2, “N-arylmethyl sulfonamide negative modulators of NR2A” (LUC THERAPEUTICS, priority 2013, dated 2018) are described below.

Sequence of NR1/NR2A (Q12879 23-1464, other chains not shown): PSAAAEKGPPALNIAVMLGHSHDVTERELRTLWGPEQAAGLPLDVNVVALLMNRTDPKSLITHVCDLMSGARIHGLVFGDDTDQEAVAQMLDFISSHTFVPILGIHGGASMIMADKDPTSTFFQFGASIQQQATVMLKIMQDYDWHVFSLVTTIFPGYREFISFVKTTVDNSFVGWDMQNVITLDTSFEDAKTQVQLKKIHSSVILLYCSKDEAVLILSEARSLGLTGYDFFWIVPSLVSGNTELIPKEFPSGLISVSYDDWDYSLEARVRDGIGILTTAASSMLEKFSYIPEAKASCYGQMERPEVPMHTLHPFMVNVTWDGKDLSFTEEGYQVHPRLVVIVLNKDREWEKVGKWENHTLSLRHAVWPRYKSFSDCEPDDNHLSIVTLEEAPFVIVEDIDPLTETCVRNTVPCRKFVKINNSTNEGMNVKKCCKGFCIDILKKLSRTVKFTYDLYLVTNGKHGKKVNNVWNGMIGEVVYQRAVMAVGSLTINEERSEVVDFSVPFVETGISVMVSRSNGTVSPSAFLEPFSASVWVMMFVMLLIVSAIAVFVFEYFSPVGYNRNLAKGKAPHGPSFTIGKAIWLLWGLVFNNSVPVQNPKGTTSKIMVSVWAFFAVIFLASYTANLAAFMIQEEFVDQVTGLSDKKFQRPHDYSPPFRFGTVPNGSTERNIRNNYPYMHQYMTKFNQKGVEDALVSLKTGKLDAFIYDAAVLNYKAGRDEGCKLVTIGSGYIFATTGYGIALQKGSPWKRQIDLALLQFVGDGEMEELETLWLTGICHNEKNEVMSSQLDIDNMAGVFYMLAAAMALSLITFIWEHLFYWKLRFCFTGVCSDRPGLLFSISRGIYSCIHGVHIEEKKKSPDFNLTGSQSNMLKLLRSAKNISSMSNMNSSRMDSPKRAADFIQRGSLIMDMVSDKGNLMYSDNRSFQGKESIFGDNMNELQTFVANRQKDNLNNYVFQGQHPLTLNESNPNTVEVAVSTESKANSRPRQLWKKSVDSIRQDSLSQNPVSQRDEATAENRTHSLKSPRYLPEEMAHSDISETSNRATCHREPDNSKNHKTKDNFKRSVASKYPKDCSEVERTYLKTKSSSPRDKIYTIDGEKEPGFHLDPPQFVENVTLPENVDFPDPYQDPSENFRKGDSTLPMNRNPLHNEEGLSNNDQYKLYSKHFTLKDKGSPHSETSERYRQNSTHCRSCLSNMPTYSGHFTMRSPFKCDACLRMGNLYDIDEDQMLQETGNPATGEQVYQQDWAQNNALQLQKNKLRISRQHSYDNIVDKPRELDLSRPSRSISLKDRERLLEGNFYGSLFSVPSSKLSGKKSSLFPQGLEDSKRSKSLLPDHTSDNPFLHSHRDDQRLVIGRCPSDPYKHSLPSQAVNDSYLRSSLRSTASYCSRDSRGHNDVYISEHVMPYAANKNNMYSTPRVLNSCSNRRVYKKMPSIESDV

With `CC(=O)N1CCc2cc(S(=O)(=O)NCc3cnc(C(=O)NCc4cnc(C)s4)cn3)ccc21` [5-(1-acetyl-2,3-dihydro-1H-indole-5-sulfonamidomethyl)-N-[(2-methyl-1,3-thiazol-5-yl)methyl]pyrazine-2-carboxamide], the IC50 reads like this: under setting [1], 10 µM; (read-out: Binned Activity) more than 10 µM.

In the case of `CC(=O)N1CCc2cc(S(=O)(=O)NCc3ccc(C(=O)NCc4cnc(C)s4)nc3)ccc21` [5-(1-acetyl-2,3-dihydro-1H-indole-5-sulfonamidomethyl)-N-[(2-methyl-1,3-thiazol-5-yl)methyl]pyridine-2-carboxamide], the IC50 by setting is: under setting [1], 10 µM; (read-out: Binned Activity) more than 10 µM.

For the compound `Cc1ncc(CNC(=O)c2cnc(CNS(=O)(=O)c3cc4ccccc4s3)cn2)s1` [5-(1-benzothiophene-2-sulfonamidomethyl)-N-[(2-methyl-1,3-thiazol-5-yl)methyl]pyrazine-2-carboxamide], the IC50 under setting [1] amounted to 10 µM and the IC50 (read-out: Binned Activity) was more than 10 µM.

As for `Cc1ncc(CNC(=O)c2ccc(CNS(=O)(=O)c3cc4ccccc4s3)cn2)s1` [5-(1-benzothiophene-2-sulfonamidomethyl)-N-[(2-methyl-1,3-thiazol-5-yl)methyl]pyridine-2-carboxamide], the IC50 runs as follows: under setting [1], 10 µM; (read-out: Binned Activity) more than 10 µM.

Turning to `Cc1ncc(CNC(=O)c2ccc(CNS(=O)(=O)c3csc4ccccc34)cn2)s1` [5-(1-benzothiophene-3-sulfonamidomethyl)-N-[(2-methyl-1,3-thiazol-5-yl)methyl]pyridine-2-carboxamide], the IC50 is 10 µM under setting [1] and more than 10 µM (read-out: Binned Activity).

Take `Cc1ncc(CNC(=O)c2ccc(CNS(=O)(=O)c3cccc4nsnc34)cn2)s1` [5-(2,1,3-benzothiadiazole-4-sulfonamidomethyl)-N-[(2-methyl-1,3-thiazol-5-yl)methyl]pyridine-2-carboxamide]: the IC50 by setting is: under setting [1], 10 µM; (read-out: Binned Activity) more than 10 µM.

`Cc1ncc(CNC(=O)c2cnc(CNS(=O)(=O)c3ccc(Cl)nc3Cl)cn2)s1` [5-(2,6-dichloropyridine-3-sulfonamidomethyl)-N-[(2-methyl-1,3-thiazol-5-yl)methyl]pyrazine-2-carboxamide]: the IC50 runs as follows: under setting [1], 10 µM; (read-out: Binned Activity) more than 10 µM.

Take `Cc1ncc(CNC(=O)c2ccc(CNS(=O)(=O)c3ccc(Cl)nc3Cl)cn2)s1` [5-(2,6-dichloropyridine-3-sulfonamidomethyl)-N-[(2-methyl-1,3-thiazol-5-yl)methyl]pyridine-2-carboxamide]: the IC50 under setting [1] stood at 10 µM and the IC50 (read-out: Binned Activity) was more than 10 µM.

As to `Cc1ncc(CNC(=O)c2cnc(CNS(=O)(=O)c3ccccc3F)c(C)n2)s1` [5-(2-fluorobenzenesulfon-amidomethyl)-6-methyl-N-[(2-methyl-1,3-thiazol-5-yl)methyl]pyrazine-2-carboxamide], the IC50 reads like this: under setting [1], 10 µM; (read-out: Binned Activity) more than 10 µM.

As for `Cc1ncc(CNC(=O)c2cnc(CNS(=O)(=O)c3ccccc3F)cn2)s1` [5-(2-fluorobenzenesulfon-amidomethyl)-N-[(2-methyl-1,3-thiazol-5-yl)methyl]pyrazine-2-carboxamide], the IC50 under setting [1] was 10 µM and the IC50 (read-out: Binned Activity) was more than 10 µM.

For the compound `Cc1ncc(CNC(=O)c2ccc(CNS(=O)(=O)c3ccccc3F)cn2)s1` [5-(2-fluorobenzenesulfon-amidomethyl)-N-[(2-methyl-1,3-thiazol-5-yl)methyl]pyridine-2-carboxamide], the IC50 by setting is: under setting [1], 10 µM; (read-out: Binned Activity) more than 10 µM.

Regarding `Cc1ncc(CNC(=O)c2cnc(CNS(=O)(=O)c3ccc(Cl)c(Cl)c3)c(C)n2)s1` [5-(3,4-dichlorobenzenesulfon-amidomethyl)-6-methyl-N-[(2-methyl-1,3-thiazol-5-yl)methyl]pyrazine-2-carboxamide], the IC50 (read-out: Binned Activity) is 0.1 to 1 µM.

With `Cc1ncc(CNC(=O)c2cnc(CNS(=O)(=O)c3ccc(Cl)c(Cl)c3)cn2)s1` [5-(3,4-dichlorobenzenesulfon-amidomethyl)-N-[(2-methyl-1,3-thiazol-5-yl)methyl]pyrazine-2-carboxamide], the IC50 by setting is: under setting [1], 10 µM; (read-out: Binned Activity) more than 10 µM.

For `Cc1ncc(CNC(=O)c2ccc(CNS(=O)(=O)c3ccc(Cl)c(Cl)c3)cn2)s1` [5-(3,4-dichlorobenzenesulfon-amidomethyl)-N-[(2-methyl-1,3-thiazol-5-yl)methyl]pyridine-2-carboxamide], for the setting “read-out: Binned Activity”, the IC50 lay in the range of 1 to 10 µM.

Consider `Cc1ncc(CNC(=O)c2cnc(CNS(=O)(=O)c3ccc(F)c(F)c3)cn2)s1` [5-(3,4-difluorobenzenesulfon-amidomethyl)-N-[(2-methyl-1,3-thiazol-5-yl)methyl]pyrazine-2-carboxamide], for which, where the note is “read-out: Binned Activity”, the IC50 lay in the range of 0.1 to 1 µM.

With `Cc1ncc(CNC(=O)c2ccc(CNS(=O)(=O)c3ccc(F)c(F)c3)cn2)s1` [5-(3,4-difluorobenzenesulfon-amidomethyl)-N-[(2-methyl-1,3-thiazol-5-yl)methyl]pyridine-2-carboxamide], the IC50 (read-out: Binned Activity) fell in the range of 0.1 to 1 µM.

Consider `Cc1ncc(CNC(=O)c2cnc(CNS(=O)(=O)c3cc(Cl)cc(Cl)c3)c(C)n2)s1` [5-(3,5-dichlorobenzenesulfon-amidomethyl)-6-methyl-N-[(2-methyl-1,3-thiazol-5-yl)methyl]pyrazine-2-carboxamide], for which the IC50 is, setting by setting: under setting [1], 10 µM; (read-out: Binned Activity) more than 10 µM.

`Cc1ncc(CNC(=O)c2cnc(CNS(=O)(=O)c3cc(Cl)cc(Cl)c3)cn2)s1` [5-(3,5-dichlorobenzenesulfon-amidomethyl)-N-[(2-methyl-1,3-thiazol-5-yl)methyl]pyrazine-2-carboxamide]: the IC50 runs as follows: under setting [1], 10 µM; (read-out: Binned Activity) more than 10 µM.

Regarding `Cc1ncc(CNC(=O)c2ccc(CNS(=O)(=O)c3cc(Cl)cc(Cl)c3)cn2)s1` [5-(3,5-dichlorobenzenesulfon-amidomethyl)-N-[(2-methyl-1,3-thiazol-5-yl)methyl]pyridine-2-carboxamide], the IC50 is, setting by setting: under setting [1], 10 µM; (read-out: Binned Activity) more than 10 µM.

`Cc1ncc(CNC(=O)c2cnc(CNS(=O)(=O)c3cc(F)cc(F)c3)c(C)n2)s1` [5-(3,5-difluorobenzenesulfon-amidomethyl)-6-methyl-N-[(2-methyl-1,3-thiazol-5-yl)methyl]pyrazine-2-carboxamide]: the IC50 (read-out: Binned Activity) lay in the range of 0.1 to 1 µM.

As for `Cc1ncc(CNC(=O)c2cnc(CNS(=O)(=O)c3cc(F)cc(F)c3)cn2)s1` [5-(3,5-difluorobenzenesulfon-amidomethyl)-N-[(2-methyl-1,3-thiazol-5-yl)methyl]pyrazine-2-carboxamide], the IC50 was 10 µM under setting [1] and more than 10 µM (read-out: Binned Activity).

As to `Cc1ncc(CNC(=O)c2ccc(CNS(=O)(=O)c3cc(F)cc(F)c3)cn2)s1` [5-(3,5-difluorobenzenesulfon-amidomethyl)-N-[(2-methyl-1,3-thiazol-5-yl)methyl]pyridine-2-carboxamide], the IC50 under setting [1] came out at 10 µM and the IC50 (read-out: Binned Activity) was more than 10 µM.

On to `CCc1nc(C(=O)NCc2cnc(C)s2)cnc1CNS(=O)(=O)c1ccc(F)c(Cl)c1` [5-(3-chloro-4-fluorobenzenesulfon-amidomethyl)-6-ethyl-N-[(2-methyl-1,3-thiazol-5-yl)methyl]pyrazine-2-carboxamide], for which, where the note is “read-out: Binned Activity”, the IC50 was less than 0.1 µM.

With `Cc1ncc(CNC(=O)c2cnc(CNS(=O)(=O)c3ccc(F)c(Cl)c3)c(C)n2)s1` [5-(3-chloro-4-fluorobenzenesulfon-amidomethyl)-6-methyl-N-[(2-methyl-1,3-thiazol-5-yl)methyl]pyrazine-2-carboxamide], the IC50 (read-out: Binned Activity) was less than 0.1 µM.

As for `O=C(NC1CCS(=O)(=O)C1)c1cnc(CNS(=O)(=O)c2ccc(F)c(Cl)c2)cn1` (centres unmarked) [5-(3-chloro-4-fluorobenzenesulfon-amidomethyl)-N-(1,1-dioxo-1λ^6-thiolan-3-yl)pyrazine-2-carboxamide], the IC50 is, setting by setting: under setting [1], 10 µM; (read-out: Binned Activity) more than 10 µM.

With `O=C(NC1CCS(=O)(=O)C1)c1ccc(CNS(=O)(=O)c2ccc(F)c(Cl)c2)cn1` (centres unmarked) [5-(3-chloro-4-fluorobenzenesulfon-amidomethyl)-N-(1,1-dioxo-1λ^6-thiolan-3-yl)pyridine-2-carboxamide], the IC50 under setting [1] came out at 10 µM and the IC50 (read-out: Binned Activity) is more than 10 µM.

For the compound `O=C(NCc1ccno1)c1ccc(CNS(=O)(=O)c2ccc(F)c(Cl)c2)cn1` [5-(3-chloro-4-fluorobenzenesulfon-amidomethyl)-N-(1,2-oxazol-5-ylmethyl)pyridine-2-carboxamide], the IC50 (read-out: Binned Activity) was 1 to 10 µM.

For the compound `O=C(NCc1cocn1)c1cnc(CNS(=O)(=O)c2ccc(F)c(Cl)c2)cn1` [5-(3-chloro-4-fluorobenzenesulfon-amidomethyl)-N-(1,3-oxazol-4-ylmethyl)pyrazine-2-carboxamide], the IC50 is 10 µM under setting [1] and more than 10 µM (read-out: Binned Activity).

Take `O=C(NCc1cocn1)c1ccc(CNS(=O)(=O)c2ccc(F)c(Cl)c2)cn1` [5-(3-chloro-4-fluorobenzenesulfon-amidomethyl)-N-(1,3-oxazol-4-ylmethyl)pyridine-2-carboxamide]: the IC50 reads like this: under setting [1], 10 µM; (read-out: Binned Activity) more than 10 µM.
